Test results published in patent US20240190880A1 (THE REGENTS OF THE UNIVERSITY OF MICHIGAN, priority 2021, published 2024).

What follows are compounds tested against T1, ER (Homo sapiens, UniProt P03372) (assay: ER degradation activity, in-cell western blot analysis in T47D cells). Conditions: 16 hours, Table A does not say which cell line (T47D or MCF7), read-out: Potency (DC50).
T1 construct: host or cells: T47D and MCF7 human breast cancer cells
T1 sequence (P03372 1-595): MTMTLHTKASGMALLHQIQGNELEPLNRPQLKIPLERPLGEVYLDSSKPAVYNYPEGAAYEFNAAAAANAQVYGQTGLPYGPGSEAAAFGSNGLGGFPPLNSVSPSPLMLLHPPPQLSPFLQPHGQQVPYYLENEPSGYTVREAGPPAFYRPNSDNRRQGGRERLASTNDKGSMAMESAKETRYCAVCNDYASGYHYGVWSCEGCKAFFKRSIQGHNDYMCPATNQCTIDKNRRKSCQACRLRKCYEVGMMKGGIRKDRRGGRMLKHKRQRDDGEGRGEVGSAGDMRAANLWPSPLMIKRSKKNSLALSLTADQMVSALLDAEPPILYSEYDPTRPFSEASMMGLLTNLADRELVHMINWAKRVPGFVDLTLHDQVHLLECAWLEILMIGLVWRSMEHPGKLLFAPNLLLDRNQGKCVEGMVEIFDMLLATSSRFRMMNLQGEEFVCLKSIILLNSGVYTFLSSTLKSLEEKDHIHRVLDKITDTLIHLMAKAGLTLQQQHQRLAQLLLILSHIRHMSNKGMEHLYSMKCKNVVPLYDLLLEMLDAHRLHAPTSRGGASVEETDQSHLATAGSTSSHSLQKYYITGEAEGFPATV
Assay type: cell-based
Procedure: ER degradation activity was evaluated in the human breast cancer cell line T47D and MCF7 purchased from the American Type Culture Collection (ATCC), Manassas, VA, and maintained and cultured in Dulbecco's Modified Eagle's medium (DMEM) containing 10% fetal bovine serum, 1 unit/ml of penicillin and 1 μg/ml of streptomycin.
The protocol for the in-cell western blot analysis: a. seed cells in black-sided/clear bottom 96- or 384-well plates at 40,000 or 10,000 cells/well, overnight; b. add diluted compounds (final 0.5% DMSO), 16 hours. […] RT 2 h, gentle shaking. Negative control: cells plus secondary antibodies (no primary antibodies); e. wash ×4 with PBS+0.05-0.1% Tween 20, gentel shaking; f. anti-rabbit-680 and anti-mouse-800 (both 1:1000 in LiCor block+0.05% Tween20, RT 1 h, gentle shaking, no light. LI-COR: 0.2% to reduce background; g. wash×4 with PBS+0.05% Tween 20, gental shaking; h. add 100 μL or 25 μL of PBS to each well and read on CLX plate reader. The relative ER percentage in treated cells were obtained by comparing the values of treated wells to those in untreated and DMSO-treated wells as 100%.

Compared with `O=C1CCC(N2C(=O)c3cc4c(cc3C2=O)CN(C(=O)[C@H]2CC[C@@H](CN3CC(Nc5ccc([C@@H]6c7ccc(O)cc7CC[C@@H]6c6ccccc6)cc5)C3)CC2)C4)C(=O)N1` (stereo partly drawn) [E 364, 2-(2,6-dioxopiperidin-3-yl)-6-((1S,4s)-4-((3-((4-((1R,2S)-6-hydroxy-2-phenyl-1,2,3,4-tetrahydronaphthalen-1-yl)phenyl)amino)azetidin-1-yl)methyl)cyclohexane-1-carbonyl)-6,7-dihydropyrrolo[3,4-f]isoindole-1,3(2H,5H)-dione], `O=C1CCC(N2C(=O)c3cc4c(cc3C2=O)CN(CC2CN(CC3CCN(c5ccc([C@@H]6c7ccc(O)cc7CC[C@@H]6c6ccc(F)cc6)cc5)CC3)C2)C4)C(=O)N1` (stereo partly drawn) [E 274, 2-(2,6-dioxopiperidin-3-yl)-6-((1-((1-(4-((1R,2S)-2-(4-fluorophenyl)-6-hydroxy-1,2,3,4-tetrahydronaphthalen-1-yl)phenyl)piperidin-4-yl)methyl)azetidin-3-yl)methyl)-6,7-dihydropyrrolo[3,4-f]isoindole-1,3(2H,5H)-dione] is higher in DC50: 10 to 100 nM for the first, greater than 100 nM for the second.

Compared with `C[C@@H]1Cc2c([nH]c3ccccc23)[C@@H](c2c(F)cc(-c3ccc(C(=O)N4CCC(N5Cc6cc7c(cc6C5)C(=O)N(C5CCC(=O)NC5=O)C7=O)CC4)cn3)cc2F)N1CC(F)F` (stereo partly drawn) [E 343, 6-(1-(6-(4-((1R,3R)-2-(2,2-difluoroethyl)-3-methyl-2,3,4,9-tetrahydro-1H-pyrido[3,4-b]indol-1-yl)-3,5-difluorophenyl)nicotinoyl)piperidin-4-yl)-2-(2,6-dioxopiperidin-3-yl)-6,7-dihydropyrrolo[3,4-f]isoindole-1,3(2H,5H)-dione], `C[C@@H]1Cc2c([nH]c3ccccc23)[C@@H](c2ccc(C3=CCC(C(=O)N4CCC(N5Cc6cc7c(cc6C5)C(=O)N(C5CCC(=O)NC5=O)C7=O)CC4)CC3)cc2)N1CC(F)F` (stereo partly drawn) [E 316, 6-(1-(4′-((1R,3R)-2-(2,2-difluoroethyl)-3-methyl-2,3,4,9-tetrahydro-1H-pyrido[3,4-b]indol-1-yl)-2,3,4,5-tetrahydro-[1,1′-biphenyl]-4-carbonyl)piperidin-4-yl)-2-(2,6-dioxopiperidin-3-yl)-6,7-dihydropyrrolo[3,4-f]isoindole-1,3(2H,5H)-dione] is higher in DC50: less than 10 nM for the first, greater than 100 nM for the second.

First: C[C@@H]1Cc2cc(O)ccc2[C@@H](c2c(F)cc(N3CC4(CN(C(=O)CN5Cc6cc7c(cc6C5)C(=O)N(C5CCC(=O)NC5=O)C7=O)C4)C3)cc2F)N1CC(F)F (stereo partly drawn) [E 42, 6-(2-(6-(4-((1S,3R)-2-(2,2-difluoroethyl)-6-hydroxy-3-methyl-1,2,3,4-tetrahydroisoquinolin-1-yl)-3,5-difluorophenyl)-2,6-diazaspiro[3.3]heptan-2-yl)-2-oxoethyl)-2-(2,6-dioxopiperidin-3-yl)-6,7-dihydropyrrolo[3,4-f]isoindole-1,3(2H,5H)-dione]
Second: C[C@@H]1Cc2c([nH]c3ccccc23)[C@@H](c2c(F)cc(CN3CCC4(CCC(CN5Cc6cc7c(cc6C5)C(=O)N(C5CCC(=O)NC5=O)C7=O)CC4)CC3)cc2F)N1CC(F)F (stereo partly drawn) [E 380, 6-((3-(4-((1R,3R)-2-(2,2-difluoroethyl)-3-methyl-2,3,4,9-tetrahydro-1H-pyrido[3,4-b]indol-1-yl)-3,5-difluorobenzyl)-3-azaspiro[5.5]undecan-9-yl)methyl)-2-(2,6-dioxopiperidin-3-yl)-6,7-dihydropyrrolo[3,4-f]isoindole-1,3(2H,5H)-dione]
The DC50 of the first is lower: less than 10 nM for the first, greater than 100 nM for the second.

First: O=C1CCC(N2C(=O)c3cc4c(cc3C2=O)CN(C(=O)CN2CC3(CCN(c5ccc([C@@H]6c7ccc(O)cc7CC[C@@H]6c6ccc(F)cc6)cc5)CC3)C2)C4)C(=O)N1 (mixture of isomers) [E 127, 2-(2,6-dioxopiperidin-3-yl)-6-(2-(7-(4-((1R,2S)-2-(4-fluorophenyl)-6-hydroxy-1,2,3,4-tetrahydronaphthalen-1-yl)phenyl)-2,7-diazaspiro[3.5]nonan-2-yl)acetyl)-6,7-dihydropyrrolo[3,4-f]isoindole-1,3(2H,5H)-dione]
Second: O=C1CCC(N2C(=O)c3cc4c(cc3C2=O)CCN(CC(=O)N2CC3(CCN(c5ccc([C@@H]6c7ccc(O)cc7CC[C@@H]6c6ccc(F)cc6)cc5)CC3)C2)CC4)C(=O)N1 (stereo partly drawn) [E 184, 2-(2,6-dioxopiperidin-3-yl)-7-(2-(7-(4-((1R,2S)-2-(4-fluorophenyl)-6-hydroxy-1,2,3,4-tetrahydronaphthalen-1-yl)phenyl)-2,7-diazaspiro[3.5]nonan-2-yl)-2-oxoethyl)-6,7,8,9-tetrahydroazepino[4,5-f]isoindole-1,3(2H,5H)-dione]
The DC50 of the first is lower: 10 to 100 nM for the first, greater than 100 nM for the second.

Work on `O=C1CCC(N2C(=O)c3cc4c(cc3C2=O)CN(CC(=O)N2CCC3(CC2)CCN(c2ccc([C@@H]5c6ccc(O)cc6CC[C@@H]5c5ccccc5)nn2)CC3)C4)C(=O)N1` (mixture of isomers) [E 306, Rac-2-(2,6-dioxopiperidin-3-yl)-6-(2-(9-(6-((1S,2S)-6-hydroxy-2-phenyl-1,2,3,4-tetrahydronaphthalen-1-yl)pyridazin-3-yl)-3,9-diazaspiro[5.5]undecan-3-yl)-2-oxoethyl)-6,7-dihydropyrrolo[3,4-f]isoindole-1,3(2H,5H)-dione] yielded a DC50 greater than 100 nM.

Same assay, conditions: compounds 16 hours, Table A does not say whether T47D or MCF7, read-out: Potency (DC50)

`C[C@@H]1Cc2c([nH]c3ccccc23)[C@@H](c2ccc(C3=CCC(C(=O)N4CCC(N5Cc6cc7c(cc6C5)C(=O)N(C5CCC(=O)NC5=O)C7=O)CC4)CC3)cc2F)N1CC(C)(C)F` (stereo partly drawn) [E 481, 2-(2,6-dioxopiperidin-3-yl)-6-(1-(3′-fluoro-4′-((1R,3R)-2-(2-fluoro-2-methylpropyl)-3-methyl-2,3,4,9-tetrahydro-1H-pyrido[3,4-b]indol-1-yl)-2,3,4,5-tetrahydro-[1,1′-biphenyl]-4-carbonyl)piperidin-4-yl)-6,7-dihydropyrrolo[3,4-f]isoindole-1,3(2H,5H)-dione] and `COc1cc(N2CCC3(CCN(C(=O)CN4Cc5cc6c(cc5C4)C(=O)N(C4CCC(=O)NC4=O)C6=O)CC3)CC2)ccc1[C@@H]1c2[nH]c3ccccc3c2C[C@@H](C)N1CC(C)(C)F` (stereo partly drawn) [E 514, 2-(2,6-dioxopiperidin-3-yl)-6-(2-(9-(4-((1R,3R)-2-(2-fluoro-2-methylpropyl)-3-methyl-2,3,4,9-tetrahydro-1H-pyrido[3,4-b]indol-1-yl)-3-methoxyphenyl)-3,9-diazaspiro[5.5]undecan-3-yl)-2-oxoethyl)-6,7-dihydropyrrolo[3,4-f]isoindole-1,3(2H,5H)-dione] fall in the same range of DC50: 10 to 100 nM for the first, 10 to 100 nM for the second.

`O=C1CCC(N2C(=O)c3cc4c(cc3C2=O)CN(CC(=O)N2CC3(CCN(c5ccc([C@H]6c7ccc(O)cc7CC[C@H]6c6ccccc6)cc5)CC3)C2)C4)C(=O)N1` (stereo partly drawn) [E 438, 2-(2,6-dioxopiperidin-3-yl)-6-(2-(7-(4-((1S,2R)-6-hydroxy-2-phenyl-1,2,3,4-tetrahydronaphthalen-1-yl)phenyl)-2,7-diazaspiro[3.5]nonan-2-yl)-2-oxoethyl)-6,7-dihydropyrrolo[3,4-f]isoindole-1,3(2H,5H)-dione] and `C[C@@H]1Cc2cc(O)ccc2[C@@H](c2c(F)cc(N3CCC(CN4CCC(N5Cc6cc7c(cc6C5)C(=O)N(C5CCC(=O)NC5=O)C7=O)CC4)CC3)cc2F)N1CC(F)F` (stereo partly drawn) [E 466, 6-(1-((1-(4-((1S,3R)-2-(2,2-difluoroethyl)-6-hydroxy-3-methyl-1,2,3,4-tetrahydroisoquinolin-1-yl)-3,5-difluorophenyl)piperidin-4-yl)methyl)piperidin-4-yl)-2-(2,6-dioxopiperidin-3-yl)-6,7-dihydropyrrolo[3,4-f]isoindole-1,3(2H,5H)-dione] cannot be ordered by DC50: greater than 100 nM for the first, greater than 100 nM for the second.
